Earlier results, collected in patent US20130039957A1, “CONTROLLED RELEASE PHARMACEUTICAL COMPOSITIONS OF BRIVARACETAM” (LUPIN LIMITED, priority 2010, published 2013).
Converted amounts (≈) assume the structure as drawn.

How the values were obtained:
[1] = target: synaptic vesicle protein 2A (SV2A) (Homo sapiens, UniProt Q7L0J3); settings: preclinical studies
[2] = healthy subjects
[3] = test system: neuronal voltage-dependent sodium channels; settings: preclinical studies

synaptic vesicle protein 2A (SV2A), sequence (Q7L0J3 whole entry, species assumed): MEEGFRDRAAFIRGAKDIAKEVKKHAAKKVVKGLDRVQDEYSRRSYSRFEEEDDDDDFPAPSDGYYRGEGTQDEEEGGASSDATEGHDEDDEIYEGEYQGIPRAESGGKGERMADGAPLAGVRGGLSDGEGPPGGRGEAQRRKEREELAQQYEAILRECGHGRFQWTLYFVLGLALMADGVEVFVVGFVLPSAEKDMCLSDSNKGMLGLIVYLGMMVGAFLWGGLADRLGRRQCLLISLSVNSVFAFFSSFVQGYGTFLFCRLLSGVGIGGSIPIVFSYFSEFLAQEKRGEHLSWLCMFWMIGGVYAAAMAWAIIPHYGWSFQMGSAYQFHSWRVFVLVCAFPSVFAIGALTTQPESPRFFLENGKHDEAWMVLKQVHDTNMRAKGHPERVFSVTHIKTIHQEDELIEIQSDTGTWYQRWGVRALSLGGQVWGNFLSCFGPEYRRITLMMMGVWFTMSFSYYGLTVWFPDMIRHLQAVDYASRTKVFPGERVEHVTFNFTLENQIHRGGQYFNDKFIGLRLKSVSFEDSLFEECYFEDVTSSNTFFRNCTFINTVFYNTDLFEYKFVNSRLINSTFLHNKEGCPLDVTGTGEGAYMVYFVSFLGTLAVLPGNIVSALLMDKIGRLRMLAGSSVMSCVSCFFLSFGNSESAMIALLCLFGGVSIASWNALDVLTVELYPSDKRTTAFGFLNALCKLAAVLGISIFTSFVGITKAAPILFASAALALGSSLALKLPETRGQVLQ

For `CCC[C@@H]1CC(=O)N([C@@H](CC)C(N)=O)C1` [Brivaracetam], the “affinity for synaptic vesicle protein 2A (SV2A)” value [1] is given as “showed affinity”, the half life [2] is given as 7.6 ± 1.7 h and the “inhibitory activity at neuronal voltage-dependent sodium channels” value [3] is given as “has inhibitory activity”. The water solubility was 700 mg/mL (≈ 3300 mM).
